Patent US5451571A (The Cleveland Clinic Foundation, priority 1994, dated 1995)
No end group written: not given here.

How the values were obtained:
Wistar Kyoto (WKY) rats = assay: Blood angiotensin peptides (RIA) after i.v. Ang I in conscious WKY with enzyme inhibitors; type: in vivo, rat
Protocol: (§1) All experiments were carried out in strict adherence to the principles sponsored by the American Physiological Society. Male 16-week-old SHR(319±4 gm) and WKY(315±4 gm) controls (Charles River, Wilmington, Mass.) were housed in rooms maintained on a 12 hr light-dark cycle. Animals ate a solid diet of rat chow (Purina, Bedford, Ohio) and had free access to water. Cannulas (PE-50 and PE-10, Clay Adams Becton Dickinson, Parsippany, N.J.) were implanted into a femoral artery and vein using aseptic conditions in rats anesthetized with 1% halothane 24 hours beforehand. The free ends of the cannulas were tunneled under the skin and externalized at the back of the neck.
(§2) Conscious rats were divided into five groups. Group I (n=4 SHR and 4 WKY) received an i.v. injection of 0.9% NaCl. Group II (n=4 SHR and 4 WKY) was given an i.v. injection of enalaprilat (MK-422,2 mg/kg). Group III (n=4 SHR and 4 WKY) was injected with (N-{N-[1-(S)-carboxy-3-phenylpropyl]-(S)-phenylalanyl}-(S)-isoserine) at a dose of 15 mg/kg. […] Group IV (n=4 SHR and 4 WKY) received both MK-422 (2 mg/kg) and SCH 39,370 (15 mg/kg). Group V (n=3 SHR and 3 WKY) were given MK- 422 (2 mg/kg) and Z-prolyl-prolinal (5 mg/kg), a specific inhibitor of prolyl endopeptidase (Friedman TC, Orlowski M, Wilk S: Prolyl Endopeptidase: Inhibition in vivo by N-benzyloxycarbonyl-prolyl-prolinal. J. Neurochem. 42:237-241,1984). Either saline (vehicle) or the enzyme inhibitors were administered 20 minutes before an i.v. injection of 0.2 ml of Ang I (2 nmol) in heparinized saline. Serial samples of arterial blood (0.2 ml) were rapidly collected into ice-chilled tubes containing 5 ml of 80% ethanol/0.1N HCL every 15-30 sec before and after injection of Ang I. The amount of blood removed in each sample was replaced with an equal volume of saline. The dead space (0.08 ml) of the femoral artery catheter was cleared of any remaining saline or blood before obtaining the samples.
(§3) Peptide Extraction and Analyses: Samples were centrifuged at 5,000 g for 20 minutes; the supernatant was stored for 12 hours at -20° C. After a second centrifugation step (10,000 g, 20 min) the supernatant was diluted 1:1 (V:V) with 1% heptaflurobutyric acid (HFBA), stored for 4-6 […] hours at 4° C., and centrifuged again at 15,000 g. This supernatant was further diluted 1:4 with 0.2% HFBA and concentrated on a Sep-Pak Vac Cartridge (Millipore Co., Milford, Mass.) activated beforehand with 3 ml of 60% acetonitrile/0.2% HFBA, 3 ml of 0.1% bovine serum albumin in 0.2% HFBA, and 5 ml of HFBA. After application of the supernatant, the column was washed with 10 ml of 0.2% HFBA. Angiotensin peptides were eluted with 8 ml of 60% acetonitrile/0.2% HFBA. Fractions were evaporated to dryness in a vacuum centrifuge (Savant Instrument Inc., Hicksville, N.Y.) for measurements by radioimmunoassay (RIA). Different aliquots of the samples were assayed to ensure linearity. Peptide recovery for Ang I added to the acid ethanol solution prior to blood sample averaged 85±4%, n=6, SFM): peptide values were not corrected for recovery. Moreover, no in vitro conversion of Ang I into either Ang-(1-7) or Ang II was observed.
(§4) The RIAs employed by the inventors to determine concentrations of Ang I, Ang II, and Ang-(1-7) are described in detail elsewhere. See, Chappell MC, Brosnihan KB, Diz DI, Ferrario CM: Identification of Angiotensin-(1-7) in Rat Brain: Evidence for Differential Processing of Agiotensin Peptides. J. Biol. Chem. […]:16518-16523,1989; and, Kohara K, Brosnihan KB, Chappell MC, Khosla MC, Ferrario CM: Angiotensin-(1-7): A Member of Circulating Angiotensin Peptides. Hypertension 17:131-138, 1991. […] The sensitivity of the Ang I assay (defined as twice the minimum detection level) averaged 5 fmol/tube. The Ang II antibody was produced by the inventors. […] The sensitivity of the Ang II RIA is 0.5 fmol/tube. The antibody of Ang-(1-7) (Core No. 1) was obtained in the inventors laboratory. […]

[1] = test system: spontaneously hypertensive rats (SHR); assay: Blood angiotensin peptides (RIA) after i.v. Ang I in conscious SHR with enzyme inhibitors; type: in vivo, rat; conditions: SHR
Protocol: as §1, §2, §3, §4

[2] = target: T1, angiotensin converting enzyme (ACE) (Canis lupus familiaris, UniProt A0A8I3S3I6); assay: Tissue ACE activity in dog brain six hours after i.v. MK 422; type: in vivo; conditions: six hours after MK 422 10 mg/kg i.v.
T1 construct: The ACE activity was determined by incubating 10 μl of the supernatants; from tissue; host or cells: dog brainstem, spinal cord, choroid plexus and neurohypophysis punches
T1 sequence (A0A8I3S3I6 31-1241): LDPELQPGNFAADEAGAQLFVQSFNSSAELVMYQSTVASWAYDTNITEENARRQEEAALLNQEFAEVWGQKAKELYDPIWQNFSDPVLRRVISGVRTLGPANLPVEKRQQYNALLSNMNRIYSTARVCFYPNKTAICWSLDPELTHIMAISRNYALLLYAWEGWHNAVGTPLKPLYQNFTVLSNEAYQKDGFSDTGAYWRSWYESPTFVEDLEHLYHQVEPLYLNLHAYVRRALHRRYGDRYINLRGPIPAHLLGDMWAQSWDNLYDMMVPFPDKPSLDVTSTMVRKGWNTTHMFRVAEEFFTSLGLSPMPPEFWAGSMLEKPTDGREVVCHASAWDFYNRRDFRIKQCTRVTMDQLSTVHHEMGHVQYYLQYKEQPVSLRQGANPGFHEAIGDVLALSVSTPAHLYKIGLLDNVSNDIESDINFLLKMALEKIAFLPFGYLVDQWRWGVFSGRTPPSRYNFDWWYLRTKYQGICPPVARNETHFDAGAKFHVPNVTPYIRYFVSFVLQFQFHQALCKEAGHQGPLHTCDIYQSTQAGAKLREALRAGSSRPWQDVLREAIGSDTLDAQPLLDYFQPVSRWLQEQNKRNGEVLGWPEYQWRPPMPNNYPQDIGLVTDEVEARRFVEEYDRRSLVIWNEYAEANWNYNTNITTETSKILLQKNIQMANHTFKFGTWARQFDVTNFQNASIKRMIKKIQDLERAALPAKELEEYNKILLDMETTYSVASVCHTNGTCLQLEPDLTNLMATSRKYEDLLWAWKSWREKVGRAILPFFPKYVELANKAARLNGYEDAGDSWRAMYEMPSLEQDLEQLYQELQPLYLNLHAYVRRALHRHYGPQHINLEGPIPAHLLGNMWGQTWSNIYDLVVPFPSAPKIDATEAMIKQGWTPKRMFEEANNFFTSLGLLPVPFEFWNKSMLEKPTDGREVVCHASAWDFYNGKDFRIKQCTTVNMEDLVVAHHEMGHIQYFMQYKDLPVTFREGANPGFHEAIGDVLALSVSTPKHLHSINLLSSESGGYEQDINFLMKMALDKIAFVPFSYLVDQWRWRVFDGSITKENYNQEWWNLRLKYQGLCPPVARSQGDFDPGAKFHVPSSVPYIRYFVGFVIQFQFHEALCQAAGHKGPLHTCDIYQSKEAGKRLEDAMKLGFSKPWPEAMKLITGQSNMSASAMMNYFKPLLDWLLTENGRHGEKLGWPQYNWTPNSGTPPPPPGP
Protocol: Experiments were performed on fourteen mongrel dogs weighing 16±2 kg and anesthetized with sodium pentobarbital (30 mg/kg i.v.). […] Ten of the fourteen dogs were given a lethal dose of sodium pentobarbital, and the brain and thoracic portion of the spinal cord (C6-T3) were excised immediately. The brain was removed from four other dogs six hours after a single injection of MK 422 (enalaprilat) at a dose of 10 mg/kg i.v.
Coronal sections (2000 μm thick) from either the brainstem or the spinal cord were laid on a frozen Petri dish placed under the operating microscope. […] Punches from coronal sections of the intermediolateral column of the spinal cord were obtained between C6 and T3. Blocks of tissue were also taken from the area postrema at the obex, the neurohypophysis, and the choroid plexus in the fourth ventricle. Remaining coronal tissue sections were analyzed separately. All tissue samples were kept on dry ice and stored at -70° C. until assayed.
The ACE activity and angiotensin metabolism were measured in tissue samples obtained from five control and four MK 422-treated dogs.
Larger tissue samples were homogenized to a final concentration of 100 mg tissue ml/buffer. The homogenates were centrifuged at 18,000 g for two minutes at 4° C. The ACE activity was determined by incubating 10 μl of the supernatants with 500 μl of an assay solution containing 5 mM Hip-His-Leu (Sigma Chemical, St. Louis, Mo., USA) in 0.4 M sodium borate buffer, pH 8.3, and 0.9 M NaCl for 15 minutes at 37° C.) (Santos R. A. S., Krieger, E. M., Greene, L. J., An Improved Fluorometric Assay of Rat Serum and Plasma Converting Enzyme. […] The product His-Leu was measured fluorometrically (365 nm excitation, 495 emission; Aminco spectrofluorometer, American Instruments, Silver Springs, Md., USA). […] Under these conditions, hydrolysis of the product His-Leu (Sigma) was less than 6% as evaluated indirectly fluorometry (Santos, et al. supra). […] Tissue ACE specific activity was expressed as units corresponding to 1 nmol/min/mg protein.

[3] = target: T1, angiotensin converting enzyme (ACE); assay: ACE activity assay (Hip-His-Leu, fluorometric) in dog brain tissue homogenates; type: biochemical; conditions: 10 μM MK 422; read-out: inhibition of product released (ACE activity)
Protocol: Larger tissue samples were homogenized to a final concentration of 100 mg tissue ml/buffer. The homogenates were centrifuged at 18,000 g for two minutes at 4° C. The ACE activity was determined by incubating 10 μl of the supernatants with 500 μl of an assay solution containing 5 mM Hip-His-Leu (Sigma Chemical, St. Louis, Mo., USA) in 0.4 M sodium borate buffer, pH 8.3, and 0.9 M NaCl for 15 minutes at 37° C.) (Santos R. A. S., Krieger, E. M., Greene, L. J., An Improved Fluorometric Assay of Rat Serum and Plasma Converting Enzyme. […] The product His-Leu was measured fluorometrically (365 nm excitation, 495 emission; Aminco spectrofluorometer, American Instruments, Silver Springs, Md., USA). In punches obtained from the brainstem, neurohypophysis, and choroid plexus, the rate of reaction was linear over a 20-minute period and with the volume of the sample assayed (5-15 ul). Under these conditions, hydrolysis of the product His-Leu (Sigma) was less than 6% as evaluated indirectly fluorometry (Santos, et al. supra). […] Tissue ACE specific activity was expressed as units corresponding to 1 nmol/min/mg protein.

[4] = test system: brain punch homogenate from the A2 region; type: biochemical, dog; conditions: pH 7.5
Source text: To study the metabolism of angiotensin in brain punch homogenates, ^125 I-labelled Ang I and Ang II (New England Nuclear, Boston, Mass., USA) were purified initially to remove the peptidase inhibitor trasylol by reverse phase high performance liquid chromatography (HPLC) using a Nova-Pak C column (Waters Associates, Milford, Mass., USA). Peptides were eluted isocratically with 33.6% acetonitrile (Burdick and Jackson, American Scientific Products, Columbus, Ohio, USA) in 0.13% heptafluorbutyric acid (HFBA; Sequenal grade, Pierce, Rockford, Ill., USA) at a flow rate of 1 ml/min. The effluent (0.25 ml/fraction) was collected in tubes precoated with bovine serum albumin (BSA; Pentex, Miles Scientific, Naperville, Ill., USA). After evaporation in a vacuum centrifuge (Savant, Farmingdale, N.Y., USA), the purified peptides were redissolved in water.
The metabolism of ^125 I-Ang I and ^125 I-Ang II was studied by incubating 10 μl of brain homogenates with 190 μl of an assay solution containing 50 pM labelled standards in 20 mM Tris HCl buffer, pH 7.5, and 0.01% BSA for 2 to 15 minutes at 37° C. The reactions were stopped by the addition of 100 μl of 32% acetonitrile containing 0.13% HFBA, followed by centrifugation at 18,000 g for 2 minutes. […]

Compound	increase of peak Ang-(1-7) over values found in control rats (Wistar Kyoto (WKY) rats; MK-422 2 mg/kg)	Ang II formation / production (Wistar Kyoto (WKY) rats; after Ang I 2 nmol i.v.)	increase of peak Ang-(1-7) over values found in control rats ([1]; MK-422 2 mg/kg)	Ang II formation / production ([1]; after Ang I 2 nmol i.v.)	ACE activity in homogenates from the choroid plexus [2]	ACE activity in other regions of the brainstem [2]	ACE activity in the A2 region (between -2 and +4 mm of the obex) ([2]; untreated controls 22.5±1.6 U)	inhibition at 10 µM [3]	major / primary metabolic product of the labelled peptide [4]
C[C@H](N[C@@H](CCc1ccccc1)C(=O)O)C(=O)N1CCC[C@H]1C(=O)O [MK 422, enalaprilat]	two-fold	eliminated	three-fold	eliminated	14.9±0.6 U	did not change	16.7±1.7 U	98%	–
^125 I-Ang II: 125I-labelled Ang II used as substrate (DRVYIHPF; also: 125I label; UniProt P01019 25-32, looked up)	–	–	–	–	–	–	–	–	Ang-(1-7)
